What was measured:
Assay type in all cases: physicochemical
[1] = Storage stability of the drug substance
Description: (§1) Eprosartan is anhydrous, and, by itself, is stable at ambient temperature and humidity, as well as at accelerated conditions (30° C./79% RH or 40° C./75% RH for up to 6 months). […] In the former case where the hydrate is obtained by moistening the drug substance, the hydrated form is not stable, and is generally converted back into the anhydrous form during drying.

[2] = Compactibility in the solid dosage form; details: compared to the corresponding anhydrous form
[3] = Moisture uptake and hydrate conversion on storage at high humidity
Description: as §1

SMILES | stability of hydrate obtained by moistening the drug substance ([1]; no excipient, during drying generally converted back into the anhydrous form) | compactibility in the solid dosage form [2] | stability at accelerated conditions ([1]; 30° C./79% RH or 40° C./75% RH for up to 6 months) | stability ([1]; drug substance by itself, ambient temperature and humidity) | conversion of solid form on storage ([3]; moistened then stored in closed container, or dry powder at relative humidity of 98% or higher, ambient or higher temperatures, 8 days or longer) | moisture pick-up at higher humidities ([3]; typically up to 95% RH)
CCCCc1ncc(/C=C(\Cc2cccs2)C(=O)O)n1Cc1ccc(C(=O)O)cc1.CS(=O)(=O)O.O.O [dihydrate, (E)-α-[2-n-butyl-1-[(4-carboxyphenyl)methyl]-1H-imidazol-5-yl]methylene-2-thiophenepropionic acid monomethanesulfonate dihydrate] | not stable | more compactible |  |  |  | 
CCCCc1ncc(/C=C(\Cc2cccs2)C(=O)O)n1Cc1ccc(C(=O)O)cc1 [Eprosartan, (E)-α-[2-n-butyl-1-[(4-carboxyphenyl)methyl]-1H-imidazol-5-yl]methylene-2-thiophenepropionic acid monomethanesulfonate] |  |  | stable | stable | converts to the hydrated form | does not pick up moisture

From patent US6420412B2, “Eprosartan dihydate and a process for its production and formulation” (SmithKline Beecham Corporation, priority 1996, dated 2002)
